Structures are written as SMILES. Active and inactive are the calls of the source. The rule behind the calls is not given here. Some results are limits rather than exact numbers.

Data on eleven molecules can be found in ChEMBL document CHEMBL5036360, “Pinguisane Sesquiterpenoids from the Chinese Liverwort Trocholejeunea sandvicensis and Their Anti-Inflammatory Activity” (J Nat Prod, 2022).

Assay [1] has as its system RAW264.7. The assay can be described thus: Antiinflammatory activity in mouse RAW264.7 cells assessed as inhibition of LPS-induced NO production at 100 uM measured after 24 hrs by Griess method. The arrangement: scale not given: the % may be the effect or the level left. The assay is classed as functional. Background: The Griess reaction detects nitrite, a stable product of nitric oxide.

The subject of assay [2] is RAW264.7. The assay can be described thus: Cytotoxicity against mouse RAW264.7 cells […] measured after 24 hrs by MTT assay. The assay is classed as cell-based. The following applies: RAW264.7, 24 h.
The species entered for a further assay is Danio rerio. The assay can be described thus: Antiinflammatory activity in transgenic fluorescent Zebrafish assessed as reduction in CuSO4 induced number of macrophage migration at 10 to 50 uM measured after 1 hr by fluorescence microscopic analysis. The following applies: dose 10-50 µM. The class given is functional, organism-based.

A word on the IC50: it is the concentration that gives 50% inhibition. For the molecule `C=C1[C@@]2(CC=O)O[C@H](OC2=O)[C@@]2(C)[C@H](C)CC[C@@]12C`, the Activity in the assay with RAW264.7 [1] is 83.15%. In the assay with RAW264.7 [2], this molecule had an IC50 of over 100 µM. Further, the result in the assay listed under Danio rerio was inactive.

Take `C[C@@H]1CC[C@@]2(C)[C@H](C)C3=CC(=O)NC3=C[C@@]12C`: the result in the assay with RAW264.7 [1] was inactive. In the assay with RAW264.7 [2], this molecule came in with an IC50 of over 100 µM.

In the case of `CCO[C@@]12C[C@@]3(C)[C@H](C)CC[C@@]3(C)[C@H](C)C1=CC(=O)O2`, the Activity in the assay with RAW264.7 [1] was determined as 83.54%. Besides, the IC50 in the assay on RAW264.7 [2] was over 100 µM. Further, the result in the assay filed under Danio rerio was Active.

As for `CC1=C(CC(=O)O)C(=O)C[C@@]2(C)[C@H](C)CC[C@@]12C`, the result with RAW264.7 [1] was inactive. The IC50 with RAW264.7 [2] is over 100 µM.

For the molecule `CO[C@@]12C[C@@]3(C)[C@H](C)CC[C@@]3(C)[C@H](C)C1=CC(=O)O2`, the result in the assay on RAW264.7 [1] was inactive. In the assay on RAW264.7 [2], this molecule returned an IC50 of over 100 µM.

Regarding `C[C@@H]1CC[C@@]2(C)[C@H](C)C3=CC(=O)O[C@]3(O)C[C@@]12C`, the Activity with RAW264.7 [1] amounted to 96.28%. The half-maximal inhibitory concentration (IC50) in the assay on RAW264.7 [2] is over 100 µM. Besides, the outcome in the assay filed under Danio rerio was inactive.

As for `C[C@@H]1CC[C@@]2(C)[C@H](C)C3=CC(=O)N[C@@H]3C[C@@]12C`, in the assay on RAW264.7 [1], the outcome was inactive. The molecule also showed an IC50 in the assay with RAW264.7 [2] of over 100 µM.

Consider `C[C@@H]1CC[C@@]2(C)[C@H](C)[C@]3(C[C@@]12C)C(=O)O[C@H]1O[C@H]13`, for which the result in the assay with RAW264.7 [1] was inactive. The same molecule gave an IC50 with RAW264.7 [2] of over 100 µM.

With `CCOC(=O)/C=C1\C(=O)C[C@@]2(C)[C@H](C)CC[C@@]2(C)[C@@H]1C`, in the assay on RAW264.7 [1], the outcome was inactive. Further, the IC50 in the assay with RAW264.7 [2] was over 100 µM.

As to `C=C1[C@]2(C)CC[C@@H](C)[C@]2(C)C[C@@]2(O)O[C@@H](OCC)[C@H](O)[C@@]12OCC`, the outcome in the assay with RAW264.7 [1] was inactive. The same molecule registered an IC50 in the assay on RAW264.7 [2] of over 100 µM.

As for `CCOC(=O)C1=C(C)[C@]2(C)CC[C@@H](C)[C@]2(C)CC1=O`, the result in the assay with RAW264.7 [1] was inactive. In addition, in the assay on RAW264.7 [2], the IC50 was over 100 µM.
